Results: patent US11840570B2, “Pharmaceutical combination and method for regulation of tumor microenvironment and immunotherapy” (Great Novel Therapeutics Biotech & Medicals Corporation, priority 2018, dated 2023)

Test system: CT26 colon tumor
Test: Anti-cancer activity in CT26 tumor-bearing BALB/c mice
Format: in vivo, mouse
Details: anti-PD-1 10 mg/kg, chidamide 50 mg/kg, metformin 100 mg/kg
Method: Animal research was approved and overseen by The Taipei Medical University Institutional Animal Care and Use Committee (TMU IACUC). Six- to eight-wk-old male BALB/C mice (BioLASCO Taiwan) were used for all animal experiments. JC (1×10^7), or CT26 (5×10^6˜1×10^7) cancer cells were inoculated by s.c. into the right flank of each mouse. Tumors were allowed to grow for 11 d (tumor size about 200-300 mm^3) before randomization and treatment. CT26-bearing and JC-bearing mice were given 10 or 2.5 mg/kg of anti-IgG, anti-PD-1 and/or anti-PD-L1 and anti-CTLA-4 (2.5 mg/kg) antibodies i.p. on days 11, 14, 17, 20, 23, and 26 post-tumor implantation, and all antibodies were diluted to appropriate concentrations in 100 μL of sterile PBS (pH 7.4) (Invitrogen Life Technologies). Celecoxib, chidamide, metformin, mocetinostat, entinostat, aspirin, and ibuprofen treatments were administrated orally on day 11 post-tumor implantation. Daily treatment with celecoxib (12.5, 25.0, and 50 mg/kg) or metformin (100 or 200 mg/kg) was performed from days 11 to 26. Chidamide was administered to treat tumor bearing mice at doses of 6.25, 12.5, 25, and 50 mg/kg or as a single dose. Chidamide was orally administered daily from days 11 to 26. Entinostat was orally administered at a dose of 20 mg/kg every two days from days 11 to 25. Mocetinostat was orally administered at a dose of 30 mg/kg daily treatment from days 11 to 26. Aspirin and ibuprofen was orally administered at a dose of 50 mg/kg daily treatment from days 11 to 26. The anti-cancer activity was measured from the start of the treatment of tumor growth until the tumor volume reached 3,000 mm^3. Tumor volume was calculated as length×width^2×0.5.
To understand the anti-cancer activity of anti-PD-1 antibody on the CT-26 colon cancer cell -bearing BALB/c mice, the anti-PD-1 antibody was administered into CT26-bearing mice at 10 mg/kg of anti-PD-1 and/or anti-IgG antibodies i.p. on days 11, 14, 17, 20, 23, and 26 of post tumor implantation. […] The response rate was evaluated by several assays.

## CN(C)C(=N)N=C(N)N [metformin]
FIG. 2A/2B
  tumor growth inhibition / anti-cancer activity: markedly inhibited
FIG. 2B, entinostat 20 mg/kg
  mice with PD: five
  mice with SD: one
